Results published in patent US20230114728A1 (Venatorx Pharmaceuticals, Inc., priority 2019, published 2023).
≈ marks a conversion by molar mass, not a printed value.

Columns and labels:
[1] = target: T1, P. aeruginosa PBP3 (Pseudomonas aeruginosa, UniProt G3XD46); test: Bocillin-FL fluorescence polarization competition binding assay, P. aeruginosa PBP3; settings: fluorescence polarization competition binding assay using Bocillin-FL
T1 construct: made in house
Method in brief: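 Binding of boronic acid inhibitors to purified Pseudomonas aeruginosa (PA01) PBP3 was measured by fluorescence polarization competition with Bocillin-FL, a fluorescent penicillin V. Reactions of 80 μl contained 0.75 μM PBP3 and 0.1 μM Bocillin-FL in 50 mM Hepes (pH 8.0), 300 mM NaCl and 5% (v/v) glycerol, in black 384-well plates. FP (Excitation 490 nm, Emission 520 nm) was read for up to 60 minutes. EC50 is the concentration that halves PBP-bound Bocillin-FL.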

[2] = target: T2, E. coli K12 PBP3 (Escherichia coli, UniProt P0AD68); test: biochemical; format: binding
T2 construct: made in house
T2 sequence (P0AD68 1-577): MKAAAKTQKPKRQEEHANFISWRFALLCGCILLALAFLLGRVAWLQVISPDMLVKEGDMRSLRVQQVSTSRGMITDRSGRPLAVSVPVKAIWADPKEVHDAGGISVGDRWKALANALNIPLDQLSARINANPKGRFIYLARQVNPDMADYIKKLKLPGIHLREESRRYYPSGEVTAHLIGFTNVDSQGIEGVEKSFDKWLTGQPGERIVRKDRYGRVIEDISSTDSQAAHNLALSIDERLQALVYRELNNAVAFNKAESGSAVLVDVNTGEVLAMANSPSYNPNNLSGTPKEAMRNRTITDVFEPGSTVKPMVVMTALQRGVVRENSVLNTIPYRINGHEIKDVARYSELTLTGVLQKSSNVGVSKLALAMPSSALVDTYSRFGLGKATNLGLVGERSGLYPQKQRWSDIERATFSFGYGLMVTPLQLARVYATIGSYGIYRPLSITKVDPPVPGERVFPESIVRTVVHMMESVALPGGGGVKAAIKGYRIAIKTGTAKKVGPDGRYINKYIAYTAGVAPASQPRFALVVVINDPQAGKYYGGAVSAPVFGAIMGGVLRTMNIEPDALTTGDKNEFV
From the text: Example I: Experimental Method for Penicillin-Binding Protein Binding Assays with Bocillin-FL Via Fluorescence Polarization
To determine the ability of boronic acid-based test PBP inhibitors to bind Penicillin Binding Proteins (PBPs), Bocillin-FL (fluorescently-labeled penicillin V; ThermoFisher Scientific) was used in a fluorescence polarization (FP) competition binding assay to assess inhibitor binding to PBP2, PBP3 or PBP4 from Escherichia coli (K12), PBP3 from Pseudomonas aeruginosa (PA01), PBP1a, PBP2 and PBP3 from Acinetobacter baumannii (ATCC 19606), and PBP2 from Neiserria gonorrheae (FA19). PBPs were cloned and purified as described previously (E. coli PBPs, King, D. T, et al., ACS Infectious Diseases 2015, 1, 175-184; P. aeruginosa PBP3, Han et. al., PNAS 2010, 107 (51), 22002-22007; A. baumannii PBPs, Penwell et. al., Antimicrob. Agents Chemother. 2015, 59 (3), 1680-1689; N. gonorrhoeae PBP2, Singh et. al., J Biol. Chem. 2019, 294 (38), 14020-14032). To establish assay conditions for competition binding, enzyme titration/saturation binding experiments were initially performed. Bocillin-FL was prepared at 0.2 μM in a buffer comprised of 50 mM Hepes (pH 8.0), 300 mM NaCl and 5% (v/v) glycerol for reactions with E. coli, P. aeruginosa and N. gonorrhoeae PBPs, and 25 mM Tris (pH 8.0), 200 mM NaCl and 10% (v/v) glycerol and 0.005% (v/v) Tween 20 for reactions with A. baumannii PBPs. Saturation binding was performed by mixing 40 μl of PBP solutions ranging in concentrations from 0-24 μM with 40 μl of the 0.2 μM Bocillin-FL solution, in individual wells of a black 384-well microplate. FP was measured immediately upon mixing (Excitation, 490 nm; Emission, 520 nm; g-factor, 0.96), using a Cytation3 (BioTek) microplate reader and measured continuously for up to 120 minutes. […] The competition binding assay (80 μl final volume) was validated using beta-lactams and PBPs at final concentrations of: 1.5 μM, E. coli PBP3; 0.75 μM, P. aeruginosa PBP3; 1 μM A. baumannii PBP1a; 2.5 μM A. baumannii PBP2; 0.2 μM A. baumannii PBP3; and […] N. gonorrhoeae PBP2. Bocillin-FL was at 0.1 μM (0.05 μM with A. baumannii PBP1a) and beta-lactam concentrations ranged from 0-1000 μM. […] Bocillin-FL was added and the FP immediately measured for up to 60 minutes (90 minutes for E. coli PBP2). […] The beta-lactam potency was reported as the concentration of beta-lactam required to reduce the amount of PBP bound-Bocillin-FL by 50% (EC50). […] Binding assays for boronic acid PBP inhibitors were performed in an identical fashion for the respective PBPs

[3] = tested on: P. aeruginosa (ΔmexAB-oprM); test: Broth microdilution MIC in CAMHB; format: cell-based; settings: Pseudomonas aeruginosa, read-out: Minimum Inhibitory Concentration, P. aeruginosa ΔmexAB-OprM
Experimental: (§1) Example III: In Vitro Antibacterial Assays
(§2) To determine the ability of test compounds to inhibit the growth of bacterial strains, classic cell based broth microdilution minimum inhibitory concentration (MIC) assays were employed. MIC assays are performed according to CLSI methods except where otherwise noted (CLSI, 2018 and CLSI, 2019). The reference type strain E. coli ATCC 25922; the wild-type parent strain E. coli AG100; the hyper-permeable E. coli 901C and E. coli D22; and the E. coli AG100A strain lacking the acrAB efflux pump encoding genes were used to determine the ability of the PBP inhibitors to penetrate the outer membrane of gram-negative bacteria and inhibit bacterial growth. […] The P. aeruginosa ATCC 27853 and A. baumannii ATCC 19606, along with the hyper-permeable P. aeruginosa ATCC 35151 and an engineered efflux pump-compromised strain of P. aeruginosa (ΔmexAB-oprM) were used to determine the ability of PBP inhibitors to penetrate the outer membrane of P. aeruginosa and A. baumannii and assess antibacterial activity against these important gram-negative organisms.
(§3) Briefly, cryo-preserved bacterial cultures of challenge strains are streaked for isolation on appropriate agar medium, in this case cation-adjusted Mueller Hinton agar. Following incubation to allow growth of the colonies, plates are sealed with parafilm and stored refrigerated for up to two weeks. For preparation of assay inoculum and to ensure low variability, at least 5 colonies are picked from the agar plates with an inoculating loop and aseptically transferred to a culture tube containing 3 mL of cation-adjusted Mueller Hinton broth (CAMHB). The broth culture is grown for 3-5 hours at 37° C. with shaking at 200 rpm. Meanwhile, 2-fold serial dilutions of test compounds are conducted in a 96-well plate with a final volume of 75 μL per well at 2-fold the final desired concentration. After the dilution plates are set up the growing cultures are then diluted in a cuvette containing CAMHB and the optical density is measured at 600 nm. The inoculum is diluted such that 75 μL of this culture in CAMHB results in a starting bacterial concentration of 2-8×10^5 CFU/mL when added to the dilution plates. The plates are incubated for 16-20 hours for Enterobacteriaceae and Pseudomonas and 20-24 hours for Acinetobacter at 37° C. The MIC values are read visually as the lowest concentration well with no bacterial growth.

[4] = tested on: A. baumannii ATCC 19606; test: Broth microdilution MIC in CAMHB; format: cell-based; settings: Acinetobacter baumannii, ATCC19606; MHB; read-out: Minimum Inhibitory Concentration, A. baumannii ATCC 19606
Experimental: as §1, §2, §3

[5] = tested on: E. coli 901C; test: Broth microdilution MIC in CAMHB; format: cell-based; settings: Escherichia coli; E. coli 901C (hyper-permeable); MHB; read-out: Minimum Inhibitory Concentration, E. coli 901C
Experimental: as §1, §2, §3

[6] = tested on: P. aeruginosa ATCC 27853; test: Broth microdilution MIC in CAMHB; format: cell-based; settings: Pseudomonas aeruginosa, ATCC27853; MHB; read-out: Minimum Inhibitory Concentration, P. aeruginosa ATCC 27853
Experimental: as §1, §2, §3

[7] = tested on: P. aeruginosa ATCC 35151; test: Broth microdilution MIC in CAMHB; format: cell-based; settings: Pseudomonas aeruginosa, ATCC35151; MHB; hyper-permeable strain; read-out: Minimum Inhibitory Concentration, P. aeruginosa ATCC 35151
Experimental: as §1, §2, §3

[8] = tested on: E. coli ATCC 25922; test: Broth microdilution MIC in CAMHB; format: cell-based; settings: Escherichia coli, ATCC25922; E. coli ATCC 25922; MHB; read-out: Minimum Inhibitory Concentration, E. coli 25922
Experimental: as §1, §2, §3

[9] = tested on: K. pneumoniae 848844 producing SHV-11 and KPC-2; test: Broth microdilution MIC in CAMHB; format: cell-based; settings: Klebsiella pneumoniae, read-out: Minimum Inhibitory Concentration, K. pneumoniae 848844
Experimental: as §1, §2, §3

[10] = tested on: E. coli D22; test: Broth microdilution MIC in CAMHB; format: cell-based; settings: Escherichia coli; E. coli D22 (hyper-permeable); MHB; read-out: Minimum Inhibitory Concentration, E. coli D22
Experimental: as §1, §2, §3

[11] = tested on: E. coli AG100A; test: Broth microdilution MIC in CAMHB; format: cell-based; settings: Escherichia coli, read-out: Minimum Inhibitory Concentration, E. coli AG100A
Experimental: as §1, §2, §3

[12] = tested on: E. coli AG100; test: Broth microdilution MIC in CAMHB; format: cell-based; settings: Escherichia coli; E. coli AG100 (wild-type parent); MHB; read-out: Minimum Inhibitory Concentration, E. coli AG100
Experimental: as §1, §2, §3

[13] = tested on: K. pneumoniae SI-117 producing VIM-1; test: Broth microdilution MIC in CAMHB; format: cell-based; settings: Klebsiella pneumoniae, read-out: Minimum Inhibitory Concentration, K. pneumoniae SI-117
Experimental: as §1, §2, §3

[14] = tested on: K. pneumoniae UMM producing SHV-5 and KPC-2; test: Broth microdilution MIC in CAMHB; format: cell-based; settings: Klebsiella pneumoniae, read-out: Minimum Inhibitory Concentration, K. pneumoniae UMM
Experimental: as §1, §2, §3

T1 sequence (G3XD46 whole entry): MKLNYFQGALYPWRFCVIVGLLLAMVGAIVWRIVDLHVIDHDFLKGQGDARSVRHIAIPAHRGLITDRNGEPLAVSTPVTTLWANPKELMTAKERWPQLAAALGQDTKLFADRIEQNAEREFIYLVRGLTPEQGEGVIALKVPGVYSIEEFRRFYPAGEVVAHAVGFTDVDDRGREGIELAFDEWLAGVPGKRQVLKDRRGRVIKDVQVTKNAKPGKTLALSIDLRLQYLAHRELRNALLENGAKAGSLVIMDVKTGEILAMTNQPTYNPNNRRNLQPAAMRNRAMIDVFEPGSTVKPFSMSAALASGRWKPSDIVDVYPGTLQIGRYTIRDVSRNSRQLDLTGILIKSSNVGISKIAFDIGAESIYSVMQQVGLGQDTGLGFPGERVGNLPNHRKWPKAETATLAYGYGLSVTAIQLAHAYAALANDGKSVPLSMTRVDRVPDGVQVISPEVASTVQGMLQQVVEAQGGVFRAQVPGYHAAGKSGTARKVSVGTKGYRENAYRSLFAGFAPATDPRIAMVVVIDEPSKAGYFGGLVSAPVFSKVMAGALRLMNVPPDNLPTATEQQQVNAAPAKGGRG

Structure (SMILES) | P. aeruginosa PBP3 Potency [1] | EC50 [2] | MIC [3] | MIC [4] | MIC [5] | MIC [6] | MIC [7] | MIC [8] | MIC [9] | MIC [10] | MIC [11] | MIC [12] | MIC [13] | MIC [14]
O=C(O)c1cccc2c1OB(O)[C@@H](NC(=O)[C@H](NC(=O)N1CCN(CC(F)(F)F)C(=O)C1=O)c1c(F)cc(O)cc1F)C2 (single isomer, unassigned) [Example 215] | C (C represents a potency between 10 and 30 μM) | < 30 µM | 32 to 64 µg/mL (≈ 52.1 to 104 µM) | > 128 µg/mL | < 0.25 µg/mL | > 128 µg/mL | 8 to 16 µg/mL (≈ 13 to 26 µM) | 32 to 64 µg/mL (≈ 52.1 to 104 µM) | > 128 µg/mL | 2 to 4 µg/mL (≈ 3.26 to 6.51 µM) | 2 to 4 µg/mL (≈ 3.26 to 6.51 µM) | 32 to 64 µg/mL (≈ 52.1 to 104 µM) | 32 to 64 µg/mL (≈ 52.1 to 104 µM) | 32 to 64 µg/mL (≈ 52.1 to 104 µM)
NS(=O)(=O)Nc1cccc([C@H](NC(=O)N2CCN(CC(F)(F)F)C(=O)C2=O)C(=O)N[C@H]2Cc3cccc(C(=O)O)c3OB2O)c1 (single isomer, unassigned) [Example 216] | C (C represents a potency between 10 and 30 μM) | 30 to 500 µM | 32 to 64 µg/mL (≈ 48.8 to 97.5 µM) | > 128 µg/mL | 2 to 4 µg/mL (≈ 3.05 to 6.09 µM) | > 128 µg/mL | 8 to 16 µg/mL (≈ 12.2 to 24.4 µM) | > 128 µg/mL | > 128 µg/mL | 8 to 16 µg/mL (≈ 12.2 to 24.4 µM) | 32 to 64 µg/mL (≈ 48.8 to 97.5 µM) | > 128 µg/mL | > 128 µg/mL | > 128 µg/mL
NS(=O)(=O)Nc1cccc([C@@H](NC(=O)N2CCN(CC(F)(F)F)C(=O)C2=O)C(=O)N[C@H]2Cc3cccc(C(=O)O)c3OB2O)c1 (single isomer, unassigned) [Example 217] | D (D represents a potency <10 μM) | < 30 µM | 8 to 16 µg/mL (≈ 12.2 to 24.4 µM) | > 128 µg/mL | 0.5 to 1 µg/mL (≈ 0.762 to 1.52 µM) | > 128 µg/mL | 2 to 4 µg/mL (≈ 3.05 to 6.09 µM) | 32 to 64 µg/mL (≈ 48.8 to 97.5 µM) | > 128 µg/mL | 2 to 4 µg/mL (≈ 3.05 to 6.09 µM) | 8 to 16 µg/mL (≈ 12.2 to 24.4 µM) | 32 to 64 µg/mL (≈ 48.8 to 97.5 µM) | > 128 µg/mL | 32 to 64 µg/mL (≈ 48.8 to 97.5 µM)
NS(=O)(=O)Nc1ccc(F)c([C@H](NC(=O)N2CCN(CC(F)(F)F)C(=O)C2=O)C(=O)N[C@H]2Cc3cccc(C(=O)O)c3OB2O)c1 (single isomer, unassigned) [Example 218] | C (C represents a potency between 10 and 30 μM) | 30 to 500 µM | 32 to 64 µg/mL (≈ 47.5 to 94.9 µM) | > 128 µg/mL | 0.5 to 1 µg/mL (≈ 0.741 to 1.48 µM) | > 128 µg/mL | 8 to 16 µg/mL (≈ 11.9 to 23.7 µM) | > 128 µg/mL | > 128 µg/mL | 8 to 16 µg/mL (≈ 11.9 to 23.7 µM) | 32 to 64 µg/mL (≈ 47.5 to 94.9 µM) | > 128 µg/mL | > 128 µg/mL | > 128 µg/mL
NS(=O)(=O)Nc1ccc(F)c([C@@H](NC(=O)N2CCN(CC(F)(F)F)C(=O)C2=O)C(=O)N[C@H]2Cc3cccc(C(=O)O)c3OB2O)c1 (single isomer, unassigned) [Example 219] | D (D represents a potency <10 μM) | < 30 µM | 8 to 16 µg/mL (≈ 11.9 to 23.7 µM) | > 128 µg/mL | 0.5 to 1 µg/mL (≈ 0.741 to 1.48 µM) | > 128 µg/mL | 2 to 4 µg/mL (≈ 2.97 to 5.93 µM) | 32 to 64 µg/mL (≈ 47.5 to 94.9 µM) | > 128 µg/mL | 2 to 4 µg/mL (≈ 2.97 to 5.93 µM) | 2 to 4 µg/mL (≈ 2.97 to 5.93 µM) | 32 to 64 µg/mL (≈ 47.5 to 94.9 µM) | 32 to 64 µg/mL (≈ 47.5 to 94.9 µM) | 32 to 64 µg/mL (≈ 47.5 to 94.9 µM)
